Legend:
[1] = system: Argentine ant, Linepithema humile; test: Knockdown/mortality of ant workers under continuous exposure on treated glazed tile; settings: for toxicity / efficacy of the substance alone (summary in words): Argentine ant, treated glazed tile
Description: (§1) Solutions of imidacloprid at 0.5% AI were prepared with and without methyl oleate @0.1, 1.0 and 5.0% in acetone. Treatments were applied using a micropipette to dispense 1 ml of test solution evenly on a 6″×6″ glazed tile. Actual coverage was about 5″×5″ (or 161 cm^2) for easy handling. Treatments were allowed to dry overnight. Ten Argentine ant workers were placed within a fluon or talc-coated PVC ring (φ7.6 cm×H 5.1 cm) under continuous exposure. A small vial filled with a cotton ball soaked in water was added as a drinking source after 3 hours. Treatments were replicated a minimum of three times. Evaluations for ant knockdown/mortality were made at various intervals and at 24 hours after exposure.
as §1, with “MATERIALS AND METHODS: Solutions” for “Solutions”, “linoleate” for “oleate”
as §1, with “MATERIALS AND METHODS: Solutions of” for “Solutions of”, “without methyl palmitate @0.1, 1.0” for “without methyl oleate @0.1, 1.0”, “after exposure. […]” for “after exposure.”

[2] = system: bait averse/resistant German cockroach (T-164 strain); test: Knockdown/mortality of male cockroaches under continuous exposure on treated glazed tile; type: in vivo, Blattella germanica; set-up: Average % Knockdown & Mortality after 5 hr / Average % Knockdown & Mortality after 30 min: concentration or dose not given beside the values; settings: for toxicity / efficacy of the substance alone (summary in words): German cockroach T-164, treated glazed tile; for Average % Knockdown & Mortality after 45 min: Table 24, imidacloprid/dibutyl sebacate (DBS) in acetone, T-164 strain
[3] = system: Aedes aegypti mosquito; test: USDA Petri Dish Method, 3 min exposure to treated glazed tile; type: in vivo; settings: Aedes aegypti
Description: Treatments were allowed to dry overnight. USDA Petri Dish Method was used as initial screening protocol. Twenty, 4-6 day old female Aedes aegypti mosquitoes were exposed to each treatment for 3 minutes and then moved to a clean untreated white paper index card. Treatments were replicated a minimum of three times. Mosquito knockdown was evaluated at various intervals through 7 hours after exposure. A small cotton ball soaked in sucrose solution was added on the screen top of the petri-dish as a drinking source. Mortality was evaluated at 24 hours after exposure.
MATERIALS AND METHODS: Solutions of resmethrin at 1 and 0.5% AI were prepared with and without adjuvant in acetone. […] USDA Petri Dish Method was used as initial screening protocol. Twenty, 4-6 day old female Aedes aegypti mosquitoes were exposed to each treatment for 3 minutes and then moved to a clean untreated white paper index card. Treatments were replicated a minimum of three times. Mosquito knockdown was evaluated at 3 minute intervals for the first 15 minutes and then at 5 minute intervals for the remainder of an hour. A small cotton ball soaked in sucrose solution was added on the screen top of the petri-dish as a drinking source. Mortality was evaluated at 24 hours after exposure.
Treatments were allowed to dry overnight. USDA Petri Dish Method was used as initial screening protocol. Twenty, 4-6 day old female Aedes aegypti mosquitoes were exposed to each treatment for 3 minutes and then moved to a clean untreated white paper index card. Treatments were replicated a minimum of three times. Mosquito knockdown was evaluated at various intervals through 6 hours after exposure. A small cotton ball soaked in sucrose solution was added on the screen top of the petri-dish as a drinking source. Mortality was evaluated at 24 hours after exposure.
Treatments were allowed to dry overnight. USDA Petri Dish Method was used as initial screening protocol. Twenty, 4-6 day old female Aedes aegypti mosquitoes were exposed to each treatment for 3 minutes and then moved to a clean untreated white paper index card. Treatments were replicated a minimum of three times. Mosquito knockdown was evaluated at 5 minute intervals for the first hour and then at 2, 4 and 6 hours. A small cotton ball soaked in sucrose solution was added on the screen top of the petri-dish as a drinking source. Mortality was evaluated at 24 hours after exposure.
Treatments were allowed to dry overnight. USDA Petri Dish Method was used as initial screening protocol. Twenty, 4-6 day old female Aedes aegypti mosquitoes were exposed to each treatment for 3 minutes and then moved to a clean untreated white paper index card. Treatments were replicated a minimum of three times. Mosquito knockdown was evaluated at 3-5 minute intervals for the first hour. A small cotton ball soaked in sucrose solution was then added on the screen top of the petri-dish as a drinking source. Mortality was evaluated at 24 hours after exposure.
Treatments were allowed to dry overnight. USDA Petri Dish Method was used as initial screening protocol. Twenty, 4-6 day old female Aedes aegypti mosquitoes were exposed to each treatment for 3 minutes and then moved to a clean untreated white paper index card. Treatments were replicated a minimum of three times. Mosquito knockdown was evaluated at various intervals through 2 hours after exposure. A small cotton ball soaked in sucrose solution was then added on the screen top of the petri-dish as a drinking source. Mortality was evaluated at 24 hours after exposure.
Treatments were allowed to dry overnight. USDA Petri Dish Method was used as initial screening protocol. Twenty, 4-6 day old female Aedes aegypti mosquitoes were exposed to each treatment for 3 minutes and then moved to a clean untreated white paper index card. Treatments were replicated a minimum of three times. Mosquito knockdown was evaluated at various hourly intervals. […]

[4] = Table 14 (Ex. 11), glazed tile, continuous exposure
[5] = Table 15 (Ex. 12), glazed tile, continuous exposure
[6] = Table 15 (Ex. 12), glazed tile, continuous exposure, listed as Butylated hydroxyanisole (BHA) (1%)
[7] = Table 15 (Ex. 12), glazed tile, continuous exposure, listed as Butylated hydroxyanisole (BHA) (5%)
[8] = Table 16 (Ex. 13), glazed tile, continuous exposure, listed as Butylated hydroxytoluene (BHT) (1%)
[9] = Table 16 (Ex. 13), glazed tile, continuous exposure, listed as Butylated hydroxytoluene (BHT) (5%)
[10] = 2 hr, Table 25, imidacloprid/dibutyl sebacate (DBS) in acetone, glazed tile
[11] = 4 hr, Table 25, imidacloprid/dibutyl sebacate (DBS) in acetone, glazed tile
[12] = Table 56, glazed tile, 3 min exposure
[13] = Table 56, glazed tile, 3 min exposure, adjuvant = Compound A 1% + Compound B 0.5%

In the case of COc1ccc(O)c(C(C)(C)C)c1 [BHA, butylated hydroxyanisole], the “toxicity / efficacy of the substance alone (summary in words)” value (“toxicity / efficacy” below) [1] is reported as “delayed toxicity”, the “Average % Knockdown & Mortality after 1 hr” value [1, 4] is reported as 0% and the “Average % Knockdown & Mortality after 2 hr” value [1, 4] is reported as 0%. For the same compound, the “Average % Knockdown & Mortality after 30 min” value ([1]; Table 14 (Ex. 11), glazed tile, continuous exposure, UTC 63% at 24 hr) was 0%, the “Average % Knockdown & Mortality after 24 hr” value ([1]; Table 14 (Ex. 11), glazed tile, continuous exposure, UTC 63% at 24 hr, listed as Butylated hydroxyanisole (BHA) (0.1%)) was 37% and the “Average % Knockdown & Mortality after 24 hr” value ([1]; Table 14 (Ex. 11), glazed tile, continuous exposure, UTC 63% at 24 hr, listed as Butylated hydroxyanisole (BHA) (1%)) was 40%. For the same compound, the “Average % Knockdown & Mortality after 24 hr” value ([1]; Table 14 (Ex. 11), glazed tile, continuous exposure, UTC 63% at 24 hr, listed as Butylated hydroxyanisole (BHA) (5%)) was 74%, the “Average % Knockdown & Mortality after 4 hr” value ([1]; Table 14 (Ex. 11), glazed tile, continuous exposure, listed as Butylated hydroxyanisole (BHA) (0.1%)) was 10% and the “Average % Knockdown & Mortality after 4 hr” value ([1]; Table 14 (Ex. 11), glazed tile, continuous exposure, listed as Butylated hydroxyanisole (BHA) (1%)) was 3%. For the same compound, the “Average % Knockdown & Mortality after 4 hr” value ([1]; Table 14 (Ex. 11), glazed tile, continuous exposure, listed as Butylated hydroxyanisole (BHA) (5%)) was 19%, the “toxicity / efficacy” value [2] was “at the high rate (5%) was toxic to the German cockroach, but not at its lower rates (1.0 and 0.1%)” and the “Average % Knockdown & Mortality after 30 min” value [2, 5] was 0%. For the same compound, the “Average % Knockdown & Mortality after 1 hr” value [2, 5] was 0%, the “Average % Knockdown & Mortality after 24 hr” value ([2]; Table 15 (Ex. 12), glazed tile, continuous exposure, listed as Butylated hydroxyanisole (BHA) (0.1%)) was 20% and the “Average % Knockdown & Mortality after 2 hr” value [2, 6] was 0%. The “Average % Knockdown & Mortality after 4 hr” value [2, 6] was 0%, the “Average % Knockdown & Mortality after 24 hr” value [2, 6] was 0% and the “Average % Knockdown & Mortality after 2 hr” value [2, 7] was 20%. The “Average % Knockdown & Mortality after 4 hr” value [2, 7] was 20% and the “Average % Knockdown & Mortality after 24 hr” value [2, 7] was 73%.
For Cc1cc(C(C)(C)C)c(O)c(C(C)(C)C)c1 [BHT, butylated hydroxytoluene], the “toxicity / efficacy” value [1] was “toxic”, the “Average % Knockdown & Mortality after 18 hr” value ([1]; Table 16 (Ex. 13), glazed tile, continuous exposure, listed as Butylated hydroxytoluene (BHT) (0.1%)) was 7% and the “Average % Knockdown & Mortality after 2 hr” value [1, 8] was 3%. The “Average % Knockdown & Mortality after 18 hr” value [1, 8] was 3%, the “Average % Knockdown & Mortality after 2 hr” value [1, 9] was 7% and the “Average % Knockdown & Mortality after 18 hr” value [1, 9] was 79%. For the same compound, the “toxicity / efficacy” value [2] was “not toxic” and the “Average % Knockdown & Mortality after 5 hr” value ([2]; Table 17 (Ex. 14), glazed tile, continuous exposure) was 0%.
In the case of CN/C(=N\[N+](=O)[O-])NCc1cnc(Cl)s1 [Clothianidin (1%)], the “Average % Knockdown & Mortality after 1 hr” value ([3]; Table 78, clothianidin study, glazed tile, 3 min exposure, adjuvant = Compound A 1% + Compound B 0.5%, 1 hr) is reported as 0%, the “Average % Knockdown & Mortality after 2 hr” value ([3]; Table 78, clothianidin study) is reported as 0% and the “Average % Knockdown & Mortality after 4 hr” value ([3]; Table 78, clothianidin study) is reported as 0%. The “Average % Knockdown & Mortality after 24 hr” value ([3]; Table 78, clothianidin study) was 0%.
For CCCCOC(=O)CCCCCCCCC(=O)OCCCC [DBS (0.1%)], the “Average % Knockdown & Mortality after 2 hr” value [1, 10] was 0%, the “Average % Knockdown & Mortality after 4 hr” value [1, 11] was 9% and the “Average % Knockdown & Mortality after 45 min” value ([2]; glazed tile) was 0%.
CCCCOC(=O)CCCCCCCCC(=O)OCCCC [DBS (1%)] was tested, and the “Average % Knockdown & Mortality after 2 hr” value [1, 10] was 0%, the “Average % Knockdown & Mortality after 4 hr” value [1, 11] was 77% and the “Average % Knockdown & Mortality after 45 min” value ([2]; glazed tile) was 0%.
In the case of CCCCOC(=O)CCCCCCCCC(=O)OCCCC [DBS (5%)], the “Average % Knockdown & Mortality after 2 hr” value [1, 10] is reported as 100%, the “Average % Knockdown & Mortality after 4 hr” value [1, 11] is reported as 100% and the “Average % Knockdown & Mortality after 45 min” value ([2]; glazed tile) is reported as 0%.
CCCCOC(=O)CCCCCCCCC(=O)OCCCC [DBS, dibutyl sebacate] was tested, and the “toxicity / efficacy” value [1] was “toxic to the Argentine ants, and the lower rates (0.1 & 1.0%) of DBS showed delayed toxicity” and the “toxicity / efficacy” value [2] was “not toxic to German cockroaches, except at its highest rate (5%)”.
For c1ccc(Cc2ccccc2)cc1 [Diphenyl methane, diphenyl methane], the “toxicity / efficacy” value [1] was “not toxic”, the “Average % Knockdown & Mortality after 2 hr” value ([1]; Table 20 (Ex. 17), glazed tile, continuous exposure) was 0% and the “Average % Knockdown & Mortality after 4 hr” value ([1]; Table 20 (Ex. 17), glazed tile, continuous exposure, listed as Diphenyl methane (DPM) (0.1%)) was 13%. For the same compound, the “Average % Knockdown & Mortality after 4 hr” value ([1]; Table 20 (Ex. 17), glazed tile, continuous exposure, listed as Diphenyl methane (DPM) (5%)) was 0%, the “toxicity / efficacy” value [2] was “not toxic” and the “Average % Knockdown & Mortality after 3 hr” value ([2]; Table 21 (Ex. 18), glazed tile, continuous exposure) was 0%.
For CC[S+]([O-])c1c(C#N)nn(-c2c(Cl)cc(C(F)(F)F)cc2Cl)c1N (stereo not drawn) [Ethiprole (.01%)], the “Average % Knockdown & Mortality after 4 hr” value [3, 12] was 2%, the “Average % Knockdown & Mortality after 6 hr” value [3, 12] was 12% and the “Average % Knockdown & Mortality after 24 hr” value [3, 12] was 17%. For the same compound, the “Average % Knockdown & Mortality after 2 hr” value [3, 13] was 0%.
CC[S+]([O-])c1c(C#N)nn(-c2c(Cl)cc(C(F)(F)F)cc2Cl)c1N (stereo not drawn) [Ethiprole (.1%)] was tested, and the “Average % Knockdown & Mortality after 4 hr” value [3, 12] was 3%, the “Average % Knockdown & Mortality after 6 hr” value [3, 12] was 15% and the “Average % Knockdown & Mortality after 24 hr” value [3, 12] was 25%. For the same compound, the “Average % Knockdown & Mortality after 2 hr” value [3, 13] was 3%.
